Like-named read-outs stand apart in the source and are kept apart here.
What was measured:
[1] = tested on: ICAM-1 expression in HT-29 cells; experiment: Measurement of ICAM-1 expressing activity (TNFα-induced ICAM-1 expression, cell ELISA); assay type: cell-based; details: Homo sapiens, Table 6, cell activity inhibition test by method (3), read-out: EVALUATION (IC50 class, inhibition of cell activity)
Protocol: Method 2: Measurement of ICAM-1 expressing activity
2.0 x 10^4 HT-29 cells (ATCC) were plated onto a 96-well plate, and the cells were cultured for 48 hours using a McCoy' 5A medium (GIBCO) containing 10% inactivated fetal calf serum. The culture medium was removed, a culture medium containing a compound to be evaluated (final DMSO concentration of 0.5%) was added, and this was incubated at 37°C for 30 minutes. Thirty ng/mL of human TNFα (GIBCO) was added, and this was incubated at 37°C for 4 hours. After washing once with a washing solution (PBS containing 0.05% Tween 20), ice-cooled methanol was added, and this was left on ice for 10 minutes and then fixed. After removing methanol, PBS containing 1% BSA was added, and blocking was performed by letting this stand at room temperature for 30 minutes. Anti-ICAM-1 antibody (Santa Cruz Biotechnology) was added, and this was left to stand at room temperature for 1 hour. After washing with the washing solution, POD-labeled secondary antibody was added, and this was left to stand at room temperature for 30 minutes. This was washed, 100 µL of 100 mM citric acid buffer (pH4.2) containing 1 mM TMBZ and 0.03% H2O2 was added, and this was reacted at room temperature for 15 minutes. The reaction was terminated with 100 µL of 2 N H2SO4, and the absorbance at 450 nm was measured using ARVO-HTS (Perkin Elmer).
When cells are stimulated with TNFα, IκBα is degraded after ubiquitination resulting in the activation of NFκB and the promotion of the expression of adhesion factor ICAM-1. Therefore, the suppression of ICAM-1 expression described above serves as an indicator to determine the effectiveness of the compound in the cells.

[2] = molecular target: T1, IκBα ubiquitinating enzyme (SCF complex: ROC1, Cullin1, Skp1, His-TrCP1; with E1, UbcH5b) (Homo sapiens, UniProt P62877+P63208+Q13616+Q9Y297); experiment: Measurement of ubiquitinating enzyme activity (IκBα ubiquitination, time-resolved fluorescence with Eu(K)-labeled ubiquitin and XL665-labeled anti-GST antibody); assay type: biochemical
T1 construct: His (polyhistidine); made in house; host or cells: insect cells (baculovirus) for the SCF complex and His-E1; E. coli for His-UBCH5b
T1 sequence (Q9Y297 whole entry): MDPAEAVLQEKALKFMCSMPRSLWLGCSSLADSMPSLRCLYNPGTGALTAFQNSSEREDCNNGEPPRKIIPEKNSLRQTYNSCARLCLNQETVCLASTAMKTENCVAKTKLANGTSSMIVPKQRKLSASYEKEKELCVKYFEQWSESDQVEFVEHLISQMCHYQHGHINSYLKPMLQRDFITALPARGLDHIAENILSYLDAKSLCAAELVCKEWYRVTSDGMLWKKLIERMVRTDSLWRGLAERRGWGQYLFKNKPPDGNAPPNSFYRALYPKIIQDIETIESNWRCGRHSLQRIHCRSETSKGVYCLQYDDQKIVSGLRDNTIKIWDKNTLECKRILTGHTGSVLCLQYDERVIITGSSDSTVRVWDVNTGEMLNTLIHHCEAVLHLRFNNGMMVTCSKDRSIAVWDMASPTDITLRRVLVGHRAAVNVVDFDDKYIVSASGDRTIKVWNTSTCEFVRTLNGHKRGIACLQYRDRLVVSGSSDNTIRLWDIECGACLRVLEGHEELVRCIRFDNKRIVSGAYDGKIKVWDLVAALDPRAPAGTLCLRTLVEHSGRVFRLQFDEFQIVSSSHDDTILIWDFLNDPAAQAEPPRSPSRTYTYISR
T1 sequence (Q13616 whole entry): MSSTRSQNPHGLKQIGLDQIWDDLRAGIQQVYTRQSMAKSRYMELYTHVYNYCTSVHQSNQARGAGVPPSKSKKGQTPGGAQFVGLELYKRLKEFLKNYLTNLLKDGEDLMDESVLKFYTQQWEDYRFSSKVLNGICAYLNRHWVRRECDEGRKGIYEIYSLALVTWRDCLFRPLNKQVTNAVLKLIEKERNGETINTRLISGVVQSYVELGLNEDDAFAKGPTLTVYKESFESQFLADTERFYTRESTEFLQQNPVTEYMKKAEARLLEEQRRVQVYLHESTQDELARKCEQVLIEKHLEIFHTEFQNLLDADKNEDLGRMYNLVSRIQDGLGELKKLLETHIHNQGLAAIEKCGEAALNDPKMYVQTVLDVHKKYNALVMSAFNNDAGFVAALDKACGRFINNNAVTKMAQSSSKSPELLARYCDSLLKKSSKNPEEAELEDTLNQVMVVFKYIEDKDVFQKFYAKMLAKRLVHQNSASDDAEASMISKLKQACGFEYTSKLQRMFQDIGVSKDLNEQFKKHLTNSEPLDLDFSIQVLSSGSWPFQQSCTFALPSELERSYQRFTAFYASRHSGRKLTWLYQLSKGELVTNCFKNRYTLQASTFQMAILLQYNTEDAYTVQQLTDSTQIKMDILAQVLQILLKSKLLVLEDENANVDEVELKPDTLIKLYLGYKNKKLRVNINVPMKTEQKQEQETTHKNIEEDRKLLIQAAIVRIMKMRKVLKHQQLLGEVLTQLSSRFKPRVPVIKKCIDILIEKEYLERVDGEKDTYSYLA
T1 sequence (P63208 whole entry): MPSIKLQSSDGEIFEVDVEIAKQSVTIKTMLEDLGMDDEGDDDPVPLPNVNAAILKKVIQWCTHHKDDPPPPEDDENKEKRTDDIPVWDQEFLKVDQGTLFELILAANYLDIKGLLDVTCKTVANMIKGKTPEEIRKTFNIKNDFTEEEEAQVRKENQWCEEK
T1 sequence (P62877 whole entry): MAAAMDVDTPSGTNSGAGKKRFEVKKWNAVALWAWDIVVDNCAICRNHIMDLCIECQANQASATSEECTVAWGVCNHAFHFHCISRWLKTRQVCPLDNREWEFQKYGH
Method in brief: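 Human SCF complex with E1 and UbcH5b ubiquitinated GST-IκBα pre-phosphorylated by IKKβ (2 mM ATP, pH 7.4, 1 h, RT), with Eu(K)-ubiquitin, 30 min RT. Stopped with EDTA, XL665 anti-GST added for 2 h; 665/620 nm TR-FRET ratio. % inhibition versus no-compound control and no-SCF blank gave IC50.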

[3] = enzyme activity inhibition test, method (1), Table 5, read-out: EVALUATION

| IC50 [1] | IC50 [2, 3] | Structure (SMILES) | IC50 [2] |
| --- | --- | --- | --- |
| 10 to 20 µM | 10 to 20 µM | COc1cc(/C=C2\C(=O)N(c3ccc(C(=O)O)cc3)N=C2Cc2ccccc2)ccc1OCc1ccccc1 [Compound 265] |  |
| 10 to 20 µM | < 10 µM | CC1=NN(c2ccc(C(=O)N3CCC(O)C3)cc2)C(=O)/C1=C\c1ccc2c(c1)OCCO2 (stereo not drawn) [Compound 413] |  |
| < 40 µM | 10 to 20 µM | COCC1=NN(c2ccc(C(=O)O)cc2)C(=O)/C1=C\c1nccs1 [Compound 237] |  |
| < 10 µM | < 10 µM | CC1=NN(c2ccc(C(=O)O)cc2)C(=O)/C1=C\c1ccc(-c2ccccc2Cl)o1 [Compound 456] |  |
| < 40 µM | < 10 µM | COC(=O)c1ccc(COc2ccc(/C=C3\C(=O)N(c4ccc(S(N)(=O)=O)cc4)N=C3C)cc2OC)cc1 [Compound 120] |  |
| < 10 µM | < 10 µM | CC1=NN(c2ccc(C(=O)O)cc2)C(=O)/C1=C\c1ccc(Oc2ccccc2)cc1 [Compound 539] |  |
| < 40 µM | 10 to 20 µM | COCC1=NN(c2ccc(C(=O)O)cc2)C(=O)/C1=C\c1ccc2c(c1)OCO2 [Compound 464] |  |
| < 10 µM | 10 to 20 µM | CCCCC1=NN(c2ccc(C(=O)O)cc2)C(=O)/C1=C\c1ccc(N2CCCC2)cc1 [Compound 301] |  |
| 10 to 20 µM | < 10 µM | COCC1=NN(c2ccc(C(=O)O)cc2)C(=O)/C1=C\c1ccc(-n2cccn2)cc1 [Compound 242] |  |
| < 10 µM | < 10 µM | O=C(O)c1ccc(N2N=C(C3CC3)/C(=C/c3ccc(CO)o3)C2=O)cc1 [Compound 316] |  |
| < 10 µM | < 40 µM | COc1cc(/C=C2\C(=O)N(c3ccccn3)N=C2C)ccc1O [Compound 129] |  |
| < 10 µM | < 10 µM | COCC1=NN(c2ccc(C(=O)O)cc2)C(=O)/C1=C\c1ccc(-n2cncn2)cc1 [Compound 243] |  |
| 10 to 20 µM | 10 to 20 µM | O=C(O)c1ccc(N2N=C(C3CC3)/C(=C/c3ccc(N4CCCC4)cc3)C2=O)cc1 [Compound 317] |  |
| 10 to 20 µM | < 10 µM | COc1cc(/C=C2\C(=O)N(c3ccc(C(=O)O)cc3)N=C2C)ccc1OCC1CC1 [Compound 390] |  |
| 10 to 20 µM | 10 to 20 µM | CC1=NN(c2ccc(S(N)(=O)=O)cc2)C(=O)/C1=C\c1ccc(F)cc1 [Compound 118] |  |
| 10 to 20 µM | < 10 µM | COc1cc(/C=C2\C(=O)N(c3ccc(C(=O)O)cc3)N=C2C2CC2)ccc1OCc1ccccc1 [Compound 314] |  |
| < 10 µM | < 10 µM | CCOC(=O)c1ccc(COc2ccc(/C=C3\C(=O)N(c4ccc(S(N)(=O)=O)cc4)N=C3C)cc2OC)o1 [Compound 154] |  |
| 10 to 20 µM | < 10 µM | CC1=NN(c2ccc(C(=O)O)cc2)C(=O)/C1=C\c1ccc(CO)o1 [Compound 255] |  |
| < 40 µM | < 10 µM | CC1=NN(c2ccccc2)C(=O)/C1=C\c1ccc2[nH]ccc2c1 [Compound 127] |  |
| 10 to 20 µM | < 10 µM | O=C(O)c1cccc(N2N=C(c3ccoc3)/C(=C/c3ccc(-c4ccccc4F)o3)C2=O)c1 [Compound 484] |  |
| 10 to 20 µM | 10 to 20 µM | CC(=O)c1ccc(-c2ccc(/C=C3\C(=O)N(c4cccc(C(=O)O)c4)N=C3C)o2)cc1 [Compound 504] |  |
| < 40 µM | < 10 µM | COc1cc(/C=C2\C(=O)N(c3ccccc3)N=C2c2ccoc2)ccc1OCc1ccccc1 [Compound 94] |  |

| IC50 [1] | IC50 [2, 3] | Structure (SMILES) | IC50 [2] |
| --- | --- | --- | --- |
| < 10 µM | < 10 µM | COCC1=NN(c2ccc(C(=O)O)cc2)C(=O)/C1=C\c1ccc(N2CCN(C(=O)OC)CC2)cc1 [Compound 235] |  |
| < 10 µM | < 10 µM | CC1=NN(c2cccc(S(N)(=O)=O)c2)C(=O)/C1=C\c1cc2ccccc2o1 [Compound 164] |  |
| 10 to 20 µM | < 10 µM | CC1=NN(c2cccc(C(=O)N3CCCC3CO)c2)C(=O)/C1=C\c1ccc2[nH]ccc2c1 (stereo not drawn) [Compound 372] |  |
| < 40 µM | 10 to 20 µM | CCCCC1=NN(c2ccccc2)C(=O)/C1=C\c1ccc(N2CCN(C(=O)OC)CC2)cc1 [Compound 54] |  |
| < 40 µM | < 10 µM | CC1=NN(c2ccc(S(N)(=O)=O)cc2)C(=O)/C1=C\c1ccc2cc[nH]c2c1 [Compound 148] |  |
| 10 to 20 µM | < 10 µM | O=C1/C(=C\c2ccc(CO)o2)C(c2ccoc2)=NN1c1ccccc1 [Compound 16] |  |
| < 40 µM | 10 to 20 µM | COc1ccc(C2=NN(c3ccccc3)C(=O)/C2=C\c2ccc3c(c2)OCCO3)cc1OC [Compound 37] |  |
| 10 to 20 µM | < 10 µM | O=C(O)c1ccc(N2N=C(c3ccoc3)/C(=C/c3ccc(-c4cnn(Cc5ccccc5)c4)o3)C2=O)cc1 [Compound 492] |  |
| < 10 µM | 10 to 20 µM | O=C(O)c1cccc(N2N=C(Cc3ccccc3)/C(=C/c3ccc(-c4ccccc4F)o3)C2=O)c1 [Compound 519] |  |
| < 40 µM | < 10 µM | CC1=NN(c2cccc(C(=O)N3CCCC(C(=O)O)C3)c2)C(=O)/C1=C\c1ccc2[nH]ccc2c1 (stereo not drawn) [Compound 376] |  |
| < 40 µM | < 10 µM | COc1cc(/C=C2\C(=O)N(c3ccccc3)N=C2c2ccoc2)ccc1O [Compound 11] |  |
| < 40 µM | 10 to 20 µM | COc1cc(/C=C2\C(=O)N(c3ccccc3)N=C2C)ccc1OCC(=O)OC(C)(C)C [Compound 125] |  |
| < 40 µM | < 10 µM | CC1=NN(c2ccc(C(=O)O)cc2)C(=O)/C1=C\c1ccc(OCC(=O)N2CCOCC2)cc1 [Compound 538] |  |
| < 10 µM | < 10 µM | Cn1cc(-c2ccc(/C=C3\C(=O)N(c4ccc(C(=O)O)cc4)N=C3c3ccoc3)o2)cn1 [Compound 489] |  |
| < 40 µM | < 10 µM | O=C(O)c1ccc(N2N=C(c3ccncc3)/C(=C/c3ccc(CO)o3)C2=O)cc1 [Compound 334] |  |
| 10 to 20 µM | < 10 µM | CC1=NN(c2cccc(C(=O)O)c2)C(=O)/C1=C\c1ccc(N2CCN(c3ccc(F)cc3)CC2)cc1 [Compound 449] |  |
| 10 to 20 µM | < 10 µM | CC1=NN(c2ccc(S(N)(=O)=O)cc2)C(=O)/C1=C\c1cc2ccccc2o1 [Compound 168] |  |
| < 40 µM | < 10 µM | O=C(O)c1ccc(N2N=C(c3cccnc3)/C(=C/c3ccc(CO)o3)C2=O)cc1 [Compound 308] |  |
| 10 to 20 µM | < 10 µM | COC(=O)N1CCN(c2ccc(/C=C3\C(=O)N(c4ccc(C(=O)O)cc4)N=C3c3ccc(OC)c(OC)c3)cc2)CC1 [Compound 279] |  |
| < 40 µM | < 10 µM | COCC1=NN(c2ccc(C(=O)O)cc2)C(=O)/C1=C\c1ccc(-n2ccnc2)cc1 [Compound 238] |  |
| < 10 µM | < 10 µM | COCC1=NN(c2ccc(C(=O)O)cc2)C(=O)/C1=C\c1ccc2c(c1)OCCO2 [Compound 239] |  |

| Structure (SMILES) | IC50 [1] | IC50 [2, 3] | IC50 [2] |
| --- | --- | --- | --- |
| O=C(O)c1ccc(N2N=C(c3ccoc3)C(=Cc3ccc(N4CCN(c5ccccc5)CC4)cc3)C2=O)cc1 [Compound 433] | < 10 µM |  | < 10 µM |
| COc1ccc(C2=NN(c3ccc(C(=O)O)cc3)C(=O)C2=Cc2ccc(O)c(OC)c2)cc1 [Compound 324] | < 10 µM |  | < 10 µM |
| CC1=NN(c2cccc(C(=O)O)c2)C(=O)C1=Cc1cc2ccccc2o1 [Compound 428] | < 40 µM |  | 10 to 20 µM |
| CCCNC(=O)COc1ccc(C=C2C(=O)N(c3ccccc3)N=C2C)cc1 [Compound 204] | 10 to 20 µM |  | 10 to 20 µM |
| CCOC(=O)COc1ccc(C=C2C(=O)N(c3ccc(S(N)(=O)=O)cc3)N=C2C)cc1 [Compound 215] | 10 to 20 µM |  | 10 to 20 µM |
| COc1ccc(C(=O)Nc2ccc(C=C3C(=O)N(c4ccc(S(N)(=O)=O)cc4)N=C3C)cc2)cc1 [Compound 229] | 10 to 20 µM |  | < 10 µM |
| COc1cc(C=C2C(=O)N(Cc3ccccc3)N=C2C)ccc1O [Compound 201] | 10 to 20 µM |  | < 10 µM |
| COC(=O)N1CCN(c2ccc(C=C3C(=O)N(c4ccc(C(=O)O)cc4)N=C3c3cccnc3)cc2)CC1 [Compound 307] | < 40 µM |  | 10 to 20 µM |
| CC1=NN(c2ccc(S(N)(=O)=O)cc2)C(=O)C1=Cc1ccc(OCC(=O)Nc2ccccc2)cc1 [Compound 210] | 10 to 20 µM |  | < 10 µM |
| COC(=O)N1CCN(c2ccc(C=C3C(=O)N(c4ccccc4)N=C3c3ccc(OC)c(OC)c3)cc2)CC1 [Compound 33] | < 40 µM |  | 10 to 20 µM |
| COC(=O)c1ccc(COc2ccc(C=C3C(=O)N(c4ccc(C(=O)O)cc4)N=C3C)cc2OC)cc1 [Compound 347] | 10 to 20 µM |  | < 10 µM |

Reference: patent EP1900728A1 (Genecare Research Institute Co., Ltd, priority 2005, dated 2006)
